According to patent US12396942B2, “Seed extract of Annona cherimola” (CLR-Chemisches Laboratorium Dr. Kurt Richter GmbH, priority 2019, dated 2025):

Legend:
IL-1β = test: Capsaicine-induced IL-1β release in co-culture of keratinocytes and human sensory neurons; assay type: cell-based; details: FIG. 3
Method: (§1) To examine whether an F230 extract prepared as described in Example 1 is able to inhibit IL-1β and IL-8 expression, a co-culture system of keratinocytes and human sensory neurons was used. Human sensory neurons were derived from human induced pluripotent stem cells (hiPS cells). hiPS cells were obtained by transfecting human fibroblasts which were reprogrammed into […]. hiPS cells were plated in 6 wells plates coated by a thin layer of Matrigel® (Corning GmbH, Kaiserslautern, Germany) at a density of 250,000 cells in a medium composed by DMEM-F12 (Pan-Biotech, Aidenbach, Germany) supplemented with 10% Knockout Serum Replacement (Life technologies, Carlsbad, USA), 0.1 μM retinoic acid (Sigma Aldrich, Taufkirchen, Germany), 1% P/S (Pan-Biotech) and a cocktail of inhibitors. The culture was maintained for 6 days at 37° C. and 5% of CO2.
(§2) After 6 days of differentiation, hiPS cells were plated at a density of 20,000 cells in the differentiation medium using 96-well plates that had been coated with a thin layer of Matrigel®. […] Samples were evaluated by cytometry flux (BD Bioscience) and compared to non-treated controls.

IL-8 = test: Capsaicine-induced IL-8 release in co-culture of keratinocytes and human sensory neurons; assay type: cell-based; details: FIG. 4
Method: as §1, §2

[1] = co-culture, capsaicine as stimulus, compared to non-treated controls
[2] = co-culture of keratinocytes and human sensory neurons, 1 hour capsaicin stimulation, supernatant

SMILES | IL-1β expression on incubation with capsaicine alone (IL-1β; [1]) | IL-8 expression on incubation with capsaicine alone (IL-8; [1]) | inhibition of capsaicine-induced IL-1β release (IL-1β; [2]) | inhibition of capsaicine-induced IL-8 release (IL-8; [2])
COc1cc(CNC(=O)CCCC/C=C/C(C)C)ccc1O [capsaicine] | strongly induced IL-1β expression | strongly induced IL-8 expression | – | –
Oc1cc2c(cc1O)CN(C(=S)NCCc1ccc(Cl)cc1)CCC2 [capsazepine] | – | – | completely abrogates IL-1β release | significantly reduced IL-8 release
